Results as given in publication PMC11582173, “Synthesis, cytotoxicity, anti-inflammatory, anti-metastatic and anti-oxidant activities of novel chalcones incorporating 2-phenoxy-N-arylacetamide and thiophene moieties: induction of apoptosis in MCF7 and HEP2 cells” (Naunyn-Schmiedeberg's Archives of Pharmacology, 2024).

Columns and labels:
[1] = system: human Lung carcinoma (A549) cells; experiment: SRB cytotoxic assay, A549; assay type: cell-based; settings: single dose 100 µg/mL, 48 h, read-out: %Inhibition at100 µg/mL A549
Experimental: All the prepared compounds were screened at a concentration of 100 µg/mL against six different human cell lines: human laryngeal carcinoma (HEP2), human colorectal carcinoma (HCT116), human breast carcinoma (MCF7), human Lung carcinoma (A549), human liver carcinoma (HEPG2), and normal African Green monkey kidney cell line (VERO). Doxorubicin was used as a positive control for comparison purposes.
The human laryngeal carcinoma (HEP2), colorectal carcinoma (HCT116), breast carcinoma (MCF7), Lung carcinoma (A549), liver carcinoma (HEPG2), and normal African Green monkey kidney cell line (VERO) were purchased from American Tissue Culture Collection (Rockville, MD, USA). The cells were treated for 48 h with a single dose (100 µg/mL) of all the tested chalcones. […] In brief, the cells were seeded in a 96-well microtiter plate at a concentration of 5×10^3 cells/well in 100 µL fresh RPMI-1640 medium and left to attach to the plates for 24 h. Then, cells were incubated with 100 μL of different concentrations (50, 25, 12.5, 6.25, and 0.0 µg/mL) of 5c in triplicate at 37 °C for 48 h. After that, the cells were fixed with 10 µL cold 100% Trichloroacetic acid (TCA) for 1h at 4 °C. The wells were then washed 1 time with distilled water using (automatic Tecan washer, Germany) and stained for 30 min at room temperature with 50 µL 0.4% SRB dissolved in 1% acetic acid. The plates were air-dried and the dye was solubilized with 100 µl/well of 1M tris base (pH 10.5) for 5 min. The optical density (O.D.) of each well was measured spectrophotometrically at 570 nm with an ELISA microplate reader (Sunrise Tecan reader, Germany) with automatic shaking for 30 seconds before reading. The mean background absorbance was subtracted automatically and mean values for each drug concentration were calculated. The percentage of cell survival was calculated as follows: Survival fraction= O.D. (treated cells)/ O.D. (control cells) (Bhat et al. [2023]).

COX-2 gene = experiment: Real-time PCR, COX-2 gene expression; assay type: cell-based, human; settings: relative to untreated control (1)
Experimental: The expression level of the following six genes (Ki-67, Survivin, Interleukin-1 beta (IL-1B), Interleukin-6 (IL-6), Cyclooxygenase-2 (COX-2) and protein kinase B (AKT1)) was determined in MCF7 and HEP2 treated with the IC50 of compound 5c. The untreated cells were used as a negative control for comparison purposes. […] Ki-67 is a popular proliferation marker for human tumor cells. […] Survivin is an inhibitor of apoptotic protein (IAP) family member, which is essential for cell division. The lowering of the expression of survivin inhibited tumor development, triggered apoptosis, and made tumor cells more susceptible to radiation and chemotherapy (Albadari and Li [2023]). […] IL-1B is a pleiotropic mediator of inflammation, which is produced in response to a variety of stressors (Aarreberg et al. [2019]). […] IL-6 is a pro-inflammatory cytokine that plays a significant role in the proliferation and differentiation of human cells. It promotes the production of numerous proteins involved in acute inflammation (Uciechowski and Dempke [2020]). […]
The expression level of the following six genes (Ki-67, survivin, AKT1, IL-6, COX2, and IL-1B) was examined using real-time polymerase chain reaction (qPCR) (Mohamed et al. [2023a]). […] The cycle threshold (Ct) was determined automatically. […]

MCF7 cells = experiment: Wound healing scratch assay, MCF7; assay type: cell-based, human; settings: MCF7, 5c at its IC50, 48 h; untreated C0 518.531±12.437, C48 h 160.647±61.276
Experimental: To examine the effect of chalcone 5c on the migration properties of the MCF7 and HEP2 cells, the wound-healing scratch assay was used. […] Chalcone 5c at its IC50 reduced the ability to close the scrape wound and decreased the number of migrating MCF7 and HEP2 cells compared to the untreated cells (Fig. 4 and Table 6). The scratch gap percentage in 5c treated MCF7 was 344.684±41.224 relative to the control cells (160.647±61.276) after 48 h of treatment. The scratch gap in HEP2 treated with 5c was 567.281±112.789 compared to the untreated control HEP2 cells (211.604±79.883) after 48 h.
MCF7 and HEP2 treated and untreated cells were detached from the tissue culture plate using 0.25% Trypsin-EDTA solution. Cells pellet was prepared in a 15 mL conical tube by centrifugation. The supernatant was aspirated, and the cells were re-suspended in culture media. The appropriate number of cells was platted in a 6-well plate for 100% confluence in 24 hours. In a sterile environment (typically a biosafety hood), a 200 μL pipette tip was used to press firmly against the […] of the tissue culture plate and swiftly made a vertical wound down through the cell monolayer. Carefully, the media and cell debris were aspirated. Slowly, enough culture media was added against the good wall to cover the bottom of the well and avoid detaching additional cells. […]

For `COc1ccc(NC(=O)COc2ccc(C=CC(=O)c3cccs3)cc2)cc1` [Compound 5c, N-(4-Methoxyphenyl)-2-(4-(3-oxo-3-(thiophen-2-yl)prop-1-en-1-yl)phenoxy)acetamide], the inhibition at 100 µg/mL [1] was 65 ± 2.1%, the COX2 expression folding (COX-2 gene; HEP2 cells treated with IC50 of 5c) was 0.547±0.0321 fold and the COX2 expression folding (COX-2 gene; MCF7 cells treated with IC50 of 5c) was 0.502±0.073 fold. The “% Scratch gap” value (MCF7 cells) was 344.684±41.224%.
